Our source for the Log II50 values is ChEMBL document CHEMBL1124467, “The binding of benzenesulfonamides to carbonic anhydrase enzyme. A molecular mechanics study and quantitative structure-activity relationships” (J Med Chem, 1989).

The species named for the first experiment is Bos taurus. Nature of the experiment: Inhibitory activity against bovine erythrocyte B enzyme.
Take `NS(=O)(=O)c1ccccc1Cl`: the Log II50 was found to be 0.88.
On the same count and under the same terms, then `CC(=O)c1ccc(S(N)(=O)=O)cc1`, with 1.32; and `NS(=O)(=O)c1cccc(Cl)c1`, with 1.

In another experiment the target is T1, Carbonic anhydrase (Bos taurus) (UniProt P00921+Q95323+P18915+Q3SZX4). Nature of the experiment: Inhibitory activity against Carbonic anhydrase. It counts as protein assay.
Turning to `NS(=O)(=O)c1ccc(Cl)c([N+](=O)[O-])c1`, the Log II50 was determined as 2.13.

The next experiment addresses T1, Carbonic anhydrase (Bos taurus).
Description: Inhibitory activity against bovine Carbonic anhydrase
`NS(=O)(=O)c1cccc([N+](=O)[O-])c1` registered a Log II50 of 1.25.
As to `NS(=O)(=O)c1ccc([N+](=O)[O-])c(Cl)c1`, the Log II50 was 1.74.
For `Cc1ccc(S(N)(=O)=O)cc1C`, the Log II50 was determined as 0.48.
Take `NS(=O)(=O)c1ccc(Cl)cc1`: the Log II50 was determined as 1.08.
Still for that read-out and setting: then `Cc1ccc(S(N)(=O)=O)cc1`, with 0.78.
Same read-out and setting: then `CC(=O)Nc1ccc(S(N)(=O)=O)cc1`, with 1.48; and `NS(=O)(=O)c1ccccc1`, with 0.58.
On to `Cc1cccc(S(N)(=O)=O)c1`, for which the Log II50 amounted to 0.66.
As to `NS(=O)(=O)c1ccc(Cl)c(Cl)c1`, the Log II50 was 1.76.
Consider `COc1ccc(S(N)(=O)=O)cc1`, for which the Log II50 is 0.71.
Same read-out and setting: then `CNc1ccc(S(N)(=O)=O)cc1`, with 0.18.
The same measure, in the same setting: then `Cc1ccccc1S(N)(=O)=O`, with 0.16.
